Data taken from BigSolDB 2.1.

CC(C)[C@H](C)[C@@H](O)[C@H](O)[C@@H](C)[C@H]1CC[C@H]2[C@@H]3COC(=O)[C@H]4C[C@H](O)[C@H](O)C[C@]4(C)[C@H]3CC[C@]12C
solubility (mole fraction)
Details	278.15 K	283.15 K	288.15 K	293.15 K	298.15 K	303.15 K	308.15 K	313.15 K	318.15 K	323.15 K
in THF	0.16	0.185	0.21	0.239	0.269	0.297	0.328	0.361	0.395	0.43
in acetone	0.09	0.106	0.124	0.145	0.166	0.188	0.213	0.239	0.267	0.296
in acetonitrile	0.00057	0.00067	0.00078	0.0009	0.00103	0.00118	0.00133	0.00149	0.00167	0.00186
in chloroform	0.00083	0.00095	0.00109	0.00125	0.00142	0.0016	0.00181	0.00204	0.00229	0.00256
in isopropanol	0.00031	0.00036	0.00041	0.00047	0.00054	0.00062	0.0007	0.0008	0.00091	0.00104
in methanol	0.0321	0.0377	0.0442	0.0511	0.0588	0.0675	0.077	0.0875	0.099	0.112
in n-butanol	0.00046	0.00054	0.00062	0.00071	0.00082	0.00093	0.00106	0.00121	0.00137	0.00155
in n-heptane	7e-05	0.0001	0.00014	0.00018	0.00022	0.00028	0.00033	0.00039	0.00046	0.00052
in n-hexane	9e-05	0.00012	0.00016	0.0002	0.00025	0.00031	0.00037	0.00044	0.00051	0.00059
